Assay results reported in article PMC5785467 (Nature, 2018).

Biological target: T1, beetle ICMT (Tribolium castaneum, UniProt D6WJ77)
T1 sequence (D6WJ77 1-281): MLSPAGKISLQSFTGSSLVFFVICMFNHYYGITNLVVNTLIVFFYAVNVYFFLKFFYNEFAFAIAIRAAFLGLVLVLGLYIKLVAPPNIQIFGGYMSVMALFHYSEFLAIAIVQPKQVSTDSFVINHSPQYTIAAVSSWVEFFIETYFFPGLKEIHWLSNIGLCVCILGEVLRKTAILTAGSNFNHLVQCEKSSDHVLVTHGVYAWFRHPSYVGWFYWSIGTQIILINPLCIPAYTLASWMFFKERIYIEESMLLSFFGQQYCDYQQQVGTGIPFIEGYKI
Experiment: X-ray crystal structure, […] Å
Format: binding
Conditions: complex with monobody MB-15, lipidic cubic phase; cofactor site

Nc1ncnc2c1ncn2[C@@H]1O[C@H](CSCC[C@H](N)C(=O)O)[C@@H](O)[C@H]1O [AdoHcy]
X-ray crystal structure, 2.3 Å: AdoHcy is encapsulated within a pocket that is formed by the M6–M7 connector
